Measurements reported in US12649723B2, “Carbonohydrazonoyl dicyanide compounds comprising 2 or more aryl or heteroaryl connected via linker and use thereof” (KOREA INSTITUTE OF SCIENCE AND TECHNOLOGY, priority 2020, dated 2026).

Experiments:
tau protein = biological target: T1, tau protein (Homo sapiens, UniProt P10636); assay: Tau-BiFC cell model: inhibition of tau protein aggregation; assay type: cell-based; settings: for remaining activity at 10 µM: 48 h, compound 10 μM, BiFC fluorescence, Forskolin-only group = 100% tau protein-aggregated state, read-out: Response (% @10 μM); for IC50: Tau BiFC in cells, with Forskolin 30 μM, 48 hours
T1 construct: fused on or other part: Split fluorescent-protein halves for BiFC are fused to tau; In the published tau-BiFC line these are Venus VN173 and VC155
T1 sequence (P10636 2-441 isoform P10636-8 limits assumed): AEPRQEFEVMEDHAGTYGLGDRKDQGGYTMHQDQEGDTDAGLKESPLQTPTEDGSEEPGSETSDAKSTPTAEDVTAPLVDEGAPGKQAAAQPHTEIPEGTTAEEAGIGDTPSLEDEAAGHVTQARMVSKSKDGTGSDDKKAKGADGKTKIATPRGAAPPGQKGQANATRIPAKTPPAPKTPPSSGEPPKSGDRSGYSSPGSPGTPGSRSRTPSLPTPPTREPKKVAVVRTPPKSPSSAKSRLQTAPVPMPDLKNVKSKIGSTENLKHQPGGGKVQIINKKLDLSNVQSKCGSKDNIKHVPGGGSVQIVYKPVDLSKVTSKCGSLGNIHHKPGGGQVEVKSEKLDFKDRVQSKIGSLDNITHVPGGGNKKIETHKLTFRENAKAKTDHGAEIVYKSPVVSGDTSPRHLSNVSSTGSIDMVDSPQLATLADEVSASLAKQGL
Summary of the method: (§1)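 Aggregation was induced by 30 μM Forskolin co-applied with test compound for 48 h, with screening at 1, 3, 10 μM and dose-response at 0.03–30 μM. Nuclei were stained with Hoechst (2 μg/mL) and counted against Forskolin-only wells for cytotoxicity. Inhibition came from BiFC fluorescence relative to Forskolin-only versus untreated cells, with IC50 by nonlinear regression.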

Tau-BiFC cells = assay: Cell viability (cytotoxicity) in tau-BiFC cells, count of stained nuclei; assay type: cell-based; settings: compound 10 μM; Forskolin-only group = 100% cell viability
Summary of the method: as §1

| SMILES | remaining activity at 10 µM (tau protein) [%] | IC50 (tau protein) [nM] | Cell viability (% @10 μM) (Tau-BiFC cells) [%] |
| --- | --- | --- | --- |
| N#CC(C#N)=NNc1ccc(Oc2cccnn2)cc1 [Compound 92, (4-(pyridazin-3-yloxy)phenyl)carbonohydrazonoyl dicyanide] | 0 | 550 | 116.8 |
| N#CC(C#N)=NNc1ccc(Oc2ccccc2F)cc1 [Compound 93, (4-(2-fluorophenoxy)phenyl)carbonohydrazonoyl dicyanide] | 0 | 1290 | 66.5 |
| N#CC(C#N)=NNc1ccc(Oc2cccc(F)c2)cc1 [Compound 94, (4-(3-fluorophenoxy)phenyl)carbonohydrazonoyl dicyanide] | 0 | 1280 | 33.6 |
| N#CC(C#N)=NNc1ccc(OCc2ccccc2)nc1 [Compound 95, (6-(benzyloxy)pyridin-3-yl)carbonohydrazonoyl dicyanide] | 0 |  | 71.9 |
| N#CC(C#N)=NNc1ccc(OCc2ccc(C(F)(F)F)cc2)nc1 [Compound 96, (6-(4-(trifluoromethyl)benzyloxy)pyridin-3-yl)carbonohydrazonoyl dicyanide] | 0 | 400 | 27.5 |
| N#CC(C#N)=NNc1ccc(OCc2ccccc2)c(C(F)(F)F)c1 [Compound 97, (4-(benzyloxy)-3-(trifluoromethyl)phenyl)carbonohydrazonoyl dicyanide] | 0 | 100 | 27.1 |
| N#CC(C#N)=NNc1ccc(OCc2ccc(C(F)(F)F)cc2)c(C(F)(F)F)c1 [Compound 98, (3-(trifluoromethyl)-4-(4-(trifluoromethyl)benzyloxy)phenyl)carbonohydrazonoyl dicyanide] | 0 | 250 | 26.9 |
| Cc1ccc(COc2ccc(NN=C(C#N)C#N)cn2)cc1 [Compound 99, (6-(4-methylbenzyloxy)pyridin-3-yl)carbonohydrazonoyl dicyanide] | 0 | 240 | 29.2 |
| N#CC(C#N)=NNc1ccc(OCCc2ccccc2)nc1 [Compound 100, (6-phenethoxypyridin-3-yl)carbonohydrazonoyl dicyanide] | 0 | 780 | 39.4 |
| N#CC(C#N)=NNc1ccc(OCCc2ccccc2)c(C(F)(F)F)c1 [Compound 101, (4-phenethoxy-3-(trifluoromethyl)phenyl)carbonohydrazonoyl dicyanide] | 0 | 950 | 30.1 |
| COc1ccc(CCOc2ccc(NN=C(C#N)C#N)cn2)cc1 [Compound 102, (6-(4-methoxyphenethoxy)pyridin-3-yl)carbonohydrazonoyl dicyanide] | 0 | 960 | 54.5 |
| N#CC(C#N)=NNc1ccc(OCCc2ccc(C(F)(F)F)cc2)nc1 [Compound 103, (6-(4-(trifluoromethyl)phenethoxy)pyridin-3-yl)carbonohydrazonoyl dicyanide] | 0 | 2350 | 37.9 |
| COc1cc(NN=C(C#N)C#N)ccc1C(=O)Nc1cncc(C)n1 [Compound 105, (3-methoxy-4-(6-methylpyrazin-2-ylcarbamoyl)phenyl)carbonohydrazonoyl dicyanide] | 0 | 400 | 142.9 |
| Cc1cnc(NC(=O)c2ccc(NN=C(C#N)C#N)cc2Cl)cn1 [Compound 106, (3-chloro-4-(5-methylpyrazin-2-ylcarbamoyl)phenyl)carbonohydrazonoyl dicyanide] | 0 |  | 184.9 |
| COc1cc(NN=C(C#N)C#N)ccc1C(=O)Nc1cncc(C)c1 [Compound 107, (3-methoxy-4-(5-methylpyridin-3-ylcarbamoyl)phenyl)carbonohydrazonoyl dicyanide] | 0 | 600 | 137.9 |
| COc1cc(NN=C(C#N)C#N)ccc1C(=O)Nc1ccc(C)cc1 [Compound 108, (3-methoxy-4-(p-tolylcarbamoyl)phenyl)carbonohydrazonoyl Dicyanide] | 0 | 1400 | 121.8 |
| COc1ccc(NC(=O)c2ccc(NN=C(C#N)C#N)cc2OC)cc1 [Compound 109, (3-methoxy-4-(4-methoxyphenylcarbamoyl)phenyl)carbonohydrazonoyl Dicyanide] | 0 | 1400 | 141.8 |
| Cc1cc(NN=C(C#N)C#N)ccc1NC(=O)c1cscn1 [Compound 111, (3-methyl-4-(thiazole-4-carboxamido)phenyl)carbonohydrazonoyl dicyanide] | 0 | 500 | 136.4 |

| SMILES | remaining activity at 10 µM (tau protein) [%] | IC50 (tau protein) [nM] | Cell viability (% @10 μM) (Tau-BiFC cells) [%] |
| --- | --- | --- | --- |
| N#CC(C#N)=NNc1ccc(NC(=O)c2cscn2)nc1 [Compound 112, (6-(thiazole-4-carboxamido)pyridin-3-yl)carbonohydrazonoyl dicyanide] | 0 | 200 | 158.2 |
| N#CC(C#N)=NNc1ccc(NC(=O)c2cocn2)nc1 [Compound 113, (6-(oxazole-4-carboxamido)pyridin-3-yl)carbonohydrazonoyl dicyanide] | 0 | 200 | 147 |
| N#CC(C#N)=NNc1ccc(NC(=O)c2cnco2)nc1 [Compound 114, (6-(oxazole-5-carboxamido)pyridin-3-yl)carbonohydrazonoyl dicyanide] | 0 | 1500 | 149.5 |
| N#CC(C#N)=NNc1ccc(NC(=O)c2ccon2)nc1 [Compound 115, (6-(isoxazole-3-carboxamido)pyridin-3-yl)carbonohydrazonoyl dicyanide] | 0 | 600 | 157.6 |
| N#CC(C#N)=NNc1ccc(Oc2nccs2)cc1 [Compound 116, (4-(thiazol-2-yloxy)phenyl)carbonohydrazonoyl dicyanide] | 0 | 1400 | 124 |
| N#CC(C#N)=NNc1ccc(OCc2ccccc2)cc1 [Compound 117, (4-(benzyloxy)phenyl)carbonohydrazonoyl Dicyanide] | 16.6 | 1240 | 126.0 |
| N#CC(C#N)=NNc1ccc(OCc2ccc(C(F)(F)F)cc2)cc1 [Compound 118, (4-(4-(trifluoromethyl)benzyloxy)phenyl)carbonohydrazonoyl dicyanide] | 25.7 | 5750 | 82.6 |
| Cc1ccc(COc2ccc(NN=C(C#N)C#N)cc2)cc1 [Compound 119, (4-(4-methylbenzyloxy)phenyl)carbonohydrazonoyl dicyanide] | 38.9 | 3550 | 112.5 |
| COc1ccc(CCOc2ccc(NN=C(C#N)C#N)cc2)cc1 [Compound 120, (4-(4-methoxyphenethoxy)phenyl)carbonohydrazonoyl dicyanide] | 0 | 1450 | 66.2 |
| N#CC(C#N)=NNc1ccc(OCCc2ccc(C(F)(F)F)cc2)cc1 [Compound 121, (4-(4-(trifluoromethyl)phenethoxy)phenyl)carbonohydrazonoyl dicyanide] | 3.4 | 4610 | 72.7 |
| N#CC(C#N)=NNc1ccc(OCCc2ccccc2)cc1 [Compound 122, (4-phenethoxyphenyl)carbonohydrazonoyl Dicyanide] | 11.7 | 1860 | 92.9 |
| N#CC(C#N)=NNc1ccc(OCCc2ccc(Cl)cc2)cc1 [Compound 123, (4-(4-chlorophenethoxy)phenyl)carbonohydrazonoyl dicyanide] | 0 | 780 | 34.6 |
| N#CC(C#N)=NNc1ccc(OCc2cnccn2)cc1 [Compound 125, (4-(pyrazin-2-ylmethoxy)phenyl)carbonohydrazonoyl dicyanide] | 0 | 2300 | 140.5 |
| N#CC(C#N)=NNc1ccc(OCc2nc3ccccc3[nH]2)cc1 [Compound 126, (4-((1H-benzo[d]imidazol-2-yl)methoxy)phenyl)carbonohydrazonoyl dicyanide] | 0 | 100 | 133.2 |
| N#CC(C#N)=NNc1ccc(OCc2cccnn2)cc1 [Compound 127, (4-(pyridazin-3-ylmethoxy)phenyl)carbonohydrazonoyl dicyanide] | 0 | 1200 | 134.9 |
| N#CC(C#N)=NNc1ccc(OCc2nc3ccccc3o2)cc1 [Compound 128, (4-(benzo[d]oxazol-2-ylmethoxy)phenyl)carbonohydrazonoyl dicyanide] | 0 | 300 | 108.5 |
| N#CC(C#N)=NNc1ccc(OCc2nc3ccccc3s2)cc1 [Compound 129, (4-(benzo[d]thiazol-2-ylmethoxy)phenyl)carbonohydrazonoyl dicyanide] | 0 | 200 | 106.9 |
